Reference: US7307166B1, “Oxpurine nucleosides and their congeners, and acyl, derivatives thereof, for improvement of hematopoiesis” (Wellstat Therapeutics Corporation, priority 1987, dated 2007)

Key:
Balb/C female mice [1] = assay: Hematopoietic recovery after cyclophosphamide in mice (spleen weight, blood cell counts); format: in vivo, mouse
hematopoietic stem cells = assay: Stem cell mobilization; format: in vivo, mouse
Balb/C female mice [2] = assay: Hematopoietic recovery after 5-fluorouracil in mice; format: in vivo, mouse
Description: 5-fluorouracil (5-FU) (150 mg/kg, i.p.) was administered to forty Balb/C female mice weighing approximately 20 grams each. Twenty-four hours later and each day thereafter for a total of 8 days, mice were given a 0.4 ml i.p. injection of either physiological saline (controls) or 5′-O-palmitoylguanosine (2.5 μmoles/mouse/day in 0.2% Tween 80). On days 7 and 14 following 5-FU administration half of the animals from each group were bled and then were sacrificed by cervical dislocation. Spleens were removed and weighed, and complete blood cells counts performed.
5-fluorouracil (5-FU) (150 mg/kg, i.p.) was administered to fifty-four Balb/C female mice weighing approximately 20 grams each. Twenty-four hours later and each day thereafter for a total of 7 days, mice were given a 0.4 ml i.p. injection of either physiological saline (controls) or palmitoylguanosine (2.5 μmoles/mouse/day in 0.2% Tween 80). On days 8, 10 and 12 following administration of 5-FU nine animals from each group were bled and then sacrificed by cervical dislocation. Spleens were removed and weighed, and complete blood cell counts performed.
Twenty-eight female Balb/C mice weighing approximately 20 grams each received a 0.4 ml i.p. injection of either physiological saline (controls), or palmitoyldeoxyguanosine (1 μmole/mouse) daily for three days. On the fourth day 5-fluorouracil (5-FU) (150 mg/kg, i.p.) was administered to all 28 of the animals. On days 5, 8 and 11 following 5-FU administration 4 (day 5) or 5 (days 8 and 11) animals from both groups were bled and then sacrificed by cervical dislocation. Spleens were removed and weighed, and complete blood cell counts performed. […]
Sixty female Balb/C mice weighing approximately 20 grams each were distributed into one of five treatment groups and treated once daily for three days by i.p. injection with 3′,5′-O—N^2-tripalmitoyl-2′-deoxyguanosine at a dose of either 1, 5, 10, 25, or 50 mg/kg/treatment in a Tween-DMSO vehicle (0.2% Tween-80 and 7.5% DMSO in physiological saline). Injection volume was 0.4 ml. An additional twelve animals (controls) received vehicle alone on those three days. On the fourth day all seventy-two animals received a single i.p. injection of 5-fluorouracil (5-FU) at a dose of 150 mg/kg. On days 7 and 10 following 5-FU administration six mice from each group were bled and then sacrificed by cervical dislocation. Six untreated mice were also bled and sacrificed to provide data on normal (basal) values. Spleens were removed and weighed, and complete blood cell counts performed.

IFN-gamma = assay: LPS-induced serum interferon-gamma (ELISA); format: in vivo, mouse
Description: Sixty-three female Balb/C mice were randomly assigned to one of three groups. The animals in one group received a single daily dose of N^2,3′,5′-tripalmitoyldeoxyguanosine (PdG) (25 mg/kg, i.p.), while a second group received a single daily dose of the PdG treatment vehicle (control). The third group was left untreated. On the fourth day 100 μg salmonella typhimurium LPS was administered to all three groups. Serum samples were taken just prior to LPS administration (t=0) and at two, four, six, eight, ten, twelve, sixteen, and twenty hours after LPS administration. The samples were then frozen until the time of assay. Serum levels of TNF-alpha, and IFN-gamma were measured by ELISA.
In the tables below, units for cytokine concentrations are picograms per ml. A value of 0 indicates cytokine levels below the detection limit of the assay (50 to 100 pg/ml).

[3] = tested on: IL-3-dependent bone marrow cells; assay: Apoptosis of IL-3-dependent bone marrow cells deprived of IL-3 (trypan blue exclusion); format: cell-based, mouse; conditions: 10 micrograms per milliliter
Description: Bone marrow cells were obtained by flushing the femurs of three male B6D2F1 mice. The cells were plated at 5.0×10^5/ml in MEM plus 10% fetal calf serum and 25 Units/ml of recombinant IL-3 for 24-48 hours. Non-adherent cells were then separated from adherent cells and maintained for an additional twelve days. IL-3 washed from cells, and cells were plated in MEM plus 10% fetal calf serum in the presence or absence of IL-3 and with or without the addition of palmitoyldeoxyguanosine (10 micrograms per milliliter) or deoxyguanosine (10 micrograms per milliliter). Cells were counted using the trypan blue exclusion method, and the percent of dead cells (trypan blue positive) was determined at 24, 40, 60 and 84 hours following the wash.

[4] = Table 5 (Ex 62): 5 days after CP
[5] = Table 6 (Ex 62): 7 days after CP
[6] = Table 7 (Ex 63): 5 days after CP
[7] = Table 8 (Ex 63): 7 days after CP
[8] = Table 9: 7 days after 5-FU, 10 mg/kg pretreatment
[9] = Table 9: 7 days after 5-FU, 25 mg/kg pretreatment
[10] = Table 9: 7 days after 5-FU, 50 mg/kg pretreatment
[11] = Table 10: 10 days after 5-FU, 5 mg/kg pretreatment
[12] = Table 10: 10 days after 5-FU, 10 mg/kg pretreatment
[13] = Table 10: 10 days after 5-FU, 25 mg/kg pretreatment
[14] = Table 10: 10 days after 5-FU, 50 mg/kg pretreatment

CCCCCCCCCCCCCCCC(=O)Nc1nc2c(ncn2[C@H]2C[C@H](OC(=O)CCCCCCCCCCCCCCC)[C@@H](COC(=O)CCCCCCCCCCCCCCC)O2)c(=O)[nH]1 [PdG, 3′,5′-O-N^2-tripalmitoyl-2′-deoxyguanosine]
Neutrophils (Balb/C female mice [1]; [4]): 2.5 ± .3 K/μl | WBC (Balb/C female mice [1]; [4]): 4.1 ± .4 K/μl | Spleen (Balb/C female mice [1]; Table 5 (Ex 62): 5 days after CP 250 mg/kg, triPdG 25 mg/kg/treatment, diPdG molar equivalent, i.p. daily): 77 ± 7 mg | Neutrophils (Balb/C female mice [1]; [5]): 9.9 ± .9 K/μl | Platelets (Balb/C female mice [1]; [5]): 549 ± 25 K/μl | WBC (Balb/C female mice [1]; [5]): 13.4 ± .4 K/μl | Spleen (Balb/C female mice [1]; Table 6 (Ex 62): 7 days after CP, triPdG 25 mg/kg, diPdG molar equivalent, daily 5 days): 156 ± 12 mg | Neutrophils (Balb/C female mice [1]; [6]): 0.6 ± .1 K/μl | WBC (Balb/C female mice [1]; [6]): 3.6 ± .4 K/μl | Spleen (Balb/C female mice [1]; Table 7 (Ex 63): 5 days after CP 250 mg/kg, TriPdG 25 mg/kg/treatment, others molar equivalent, i.p. daily): 73 ± 3 mg | Neutrophils (Balb/C female mice [1]; [7]): 7.3 ± .3 K/μl | Platelets (Balb/C female mice [1]; [7]): 674 ± 37 K/μl | WBC (Balb/C female mice [1]; [7]): 3.6 ± .4 K/μl | Spleen (Balb/C female mice [1]; Table 8 (Ex 63): 7 days after CP, TriPdG 25 mg/kg, others molar equivalent, daily 5 days): 198 ± 23 mg | mobilization of stem cells (hematopoietic stem cells; PdG alone 25 mg/kg): can induce the mobilization | response to cyclophosphamide (stem cell mobilization) with PdG (hematopoietic stem cells; PdG with cyclophosphamide): seven to eight-fold greater | mobilizing stem cells in intact and splenectomized mice (hematopoietic stem cells; with and without cyclophosphamide co-treatment): equally effective | Platelets (Balb/C female mice [2]; Table 9: 7 days after 5-FU, 5 mg/kg pretreatment): 682 ± 66 K/μl | Platelets (Balb/C female mice [2]; [8]): 571 ± 41 K/μl | Spleen (Balb/C female mice [2]; [8]): 83 ± 6 mg | Platelets (Balb/C female mice [2]; [9]): 587 ± 19 K/μl | Spleen (Balb/C female mice [2]; [9]): 93 ± 5 mg | Platelets (Balb/C female mice [2]; [10]): 596 ± 43 K/μl | Spleen (Balb/C female mice [2]; [10]): 102 ± 4 mg | Neutrophils (Balb/C female mice [2]; Table 10: 10 days after 5-FU, 1 mg/kg pretreatment): 0.4 ± .2 K/μl | Neutrophils (Balb/C female mice [2]; [11]): 1.6 ± .4 K/μl | Spleen (Balb/C female mice [2]; [11]): 157 ± 13 mg | Neutrophils (Balb/C female mice [2]; [12]): 1.8 ± .4 K/μl | Spleen (Balb/C female mice [2]; [12]): 169 ± 24 mg | Lymphocytes (Balb/C female mice [2]; [13]): 8.3 ± .4 K/μl | Neutrophils (Balb/C female mice [2]; [13]): 2.9 ± .4 K/μl | Spleen (Balb/C female mice [2]; [13]): 293 ± 17 mg | WBC (Balb/C female mice [2]; [13]): 11.4 ± .6 K/μl | Lymphocytes (Balb/C female mice [2]; [14]): 8.3 ± 1.0 K/μl | Neutrophils (Balb/C female mice [2]; [14]): 2.2 ± .5 K/μl | Spleen (Balb/C female mice [2]; [14]): 320 ± 39 mg | WBC (Balb/C female mice [2]; [14]): 10.8 ± 1.6 K/μl | serum interferon-gamma (IFN-gamma; 0 hr after LPS 100 μg, PdG 25 mg/kg i.p. daily before, 0 = below detection limit): 0 picograms per ml | serum interferon-gamma (IFN-gamma; 2 hr after LPS, 0 = below detection limit): 0 picograms per ml | serum interferon-gamma (IFN-gamma; 4 hr after LPS): 825 ± 248 picograms per ml | serum interferon-gamma (IFN-gamma; 8 hr after LPS): 2129 ± 454 picograms per ml | serum interferon-gamma (IFN-gamma; 10 hr after LPS): 911 ± 279 picograms per ml | serum interferon-gamma (IFN-gamma; 12 hr after LPS, 0 = below detection limit): 0 picograms per ml | serum interferon-gamma (IFN-gamma; 16 hr after LPS, 0 = below detection limit): 0 picograms per ml | serum interferon-gamma (IFN-gamma; 20 hr after LPS, 0 = below detection limit): 0 picograms per ml | area under the curve (AUC) over the entire time course (IFN-gamma; PdG 25 mg/kg i.p.): significantly lower | peak IFN-gamma levels vs control values (IFN-gamma; PdG 25 mg/kg i.p.): five- to seven-fold lower | % Dead Cells ([3]; 40 hr after IL-3 wash): 18.0 ± 3.0 % | % Dead Cells ([3]; 60 hr after IL-3 wash): 16.0 ± 1.5 % | % Dead Cells ([3]; 84 hr after IL-3 wash): 15.3 ± 5.5 %
